8 molecules from patent publication US20250163038A1, “CBL-B MODULATORS AND USES THEREOF” (Nimbus Clio, Inc., priority 2021, published 2025) can be followed below.

A value given as a limit tells only on which side of the number the result lay.

In assay [1] the target is Recombinant human Cbl-b (aa 36-427) (Homo sapiens, UniProt Q13191). Description: Cbl-b Biochemical Assay (TR-FRET). To be noted: read-out: TR-FRET hCbl-b IC50. A general note: TR-FRET usually uses a lanthanide donor and a delayed reading to cut background.
Chain of Recombinant human Cbl-b (aa 36-427) (Q13191 36-427): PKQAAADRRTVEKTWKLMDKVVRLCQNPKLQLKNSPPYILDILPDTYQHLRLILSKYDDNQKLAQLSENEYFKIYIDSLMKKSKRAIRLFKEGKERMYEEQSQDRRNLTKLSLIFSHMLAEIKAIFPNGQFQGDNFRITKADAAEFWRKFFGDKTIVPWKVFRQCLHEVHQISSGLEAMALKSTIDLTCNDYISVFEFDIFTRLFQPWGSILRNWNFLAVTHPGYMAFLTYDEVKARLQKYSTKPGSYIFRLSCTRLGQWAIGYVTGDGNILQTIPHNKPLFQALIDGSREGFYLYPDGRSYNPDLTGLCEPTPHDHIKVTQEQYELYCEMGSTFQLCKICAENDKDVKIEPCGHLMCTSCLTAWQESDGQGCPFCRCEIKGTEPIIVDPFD
For assay [2], the target named is T1, Recombinant human c-Cbl (aa 47-435) (Homo sapiens, UniProt P22681).
T1 sequence (P22681 47-435): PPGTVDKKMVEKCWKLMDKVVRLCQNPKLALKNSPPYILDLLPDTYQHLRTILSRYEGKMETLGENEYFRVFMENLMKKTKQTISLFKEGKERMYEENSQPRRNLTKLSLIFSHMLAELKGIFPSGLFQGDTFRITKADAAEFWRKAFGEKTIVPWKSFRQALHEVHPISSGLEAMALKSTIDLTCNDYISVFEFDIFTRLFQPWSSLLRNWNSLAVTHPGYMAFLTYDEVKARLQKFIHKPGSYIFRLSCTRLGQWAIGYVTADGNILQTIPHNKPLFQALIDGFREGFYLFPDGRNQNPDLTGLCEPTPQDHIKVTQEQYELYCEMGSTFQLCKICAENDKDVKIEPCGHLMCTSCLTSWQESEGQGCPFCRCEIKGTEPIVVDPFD
Description: c-Cbl Biochemical Assay (TR-FRET). The note with it: hc-Cbl Biochemical Assay (TR-FRET); read-out: TR-FRET hcCbl IC50.

Assay [3] relates to Jurkat (clone E6-1) cells with NFAT luciferase reporter. Briefly: Jurkat reporter assay (NFAT Luciferase). The note with it: Homo sapiens; Jurkat NFAT luciferase reporter cells, anti-CD3 stimulation, 6 hr; read-out: Jurkat NFAT EC50. In kind it is cell-based. On the technique in general: In a reporter assay the amount or activity of a reporter protein is the signal.

For orientation: IC50 means the point on the concentration scale where inhibition reaches its midpoint. In general, EC50 refers to the concentration giving half of the maximal effect.

For `Cn1cnnc1-c1cc(F)ccc1-c1cccc(-c2nc3cc(CN[C@@H]4CCC[C@@H]4O)ccc3s2)c1` [ET-8, (1S,2R)-2-(((2-(4′-Fluoro-2′-(4-methyl-4H-1,2,4-triazol-3-yl)-[1,1′-biphenyl]-3-yl)benzo[d]thiazol-5-yl)methyl)amino)cyclopentan-1-ol], the IC50 in assay [1] and in assay [2] was less than 0.2 µM in each case. Also, the half-maximal effective concentration (EC50) in assay [3] was in the range of 0.2 to 1 µM.

For `Cn1cnnc1-c1ccccc1-c1cccc(-c2nc3cc(CN[C@@H]4CCC[C@@H]4O)cc(C(F)(F)F)c3o2)c1` [Example R-3, (1S,2R)-2-(((2-(2′-(4-Methyl-4H-1,2,4-triazol-3-yl)-[1,1′-biphenyl]-3-yl)-7-(trifluoromethyl)benzo[d]oxazol-5-yl)methyl)amino)cyclopentan-1-ol], the IC50 in assay [1] is less than 0.2 µM; in assay [2] it was 1 to 10 µM. Besides, the EC50 in assay [3] was 0.2 to 1 µM.

Turning to `COCCNCc1cc(C(F)(F)F)c2oc(-c3cccc([C@]4(c5nncn5C)C[C@@H](C)C4)c3)nc2c1` [ADN-1, (2-Methoxyethyl)[(2-{3-[(1r,3s)-3-methyl-1-(4-methyl-1,2,4-triazol-3-yl)cyclobutyl]phenyl}-7-(trifluoromethyl)-1,3-benzoxazol-5-yl)methyl]amine], the IC50 was less than 0.2 µM in assay [1] and 0.2 to 1 µM in assay [2]. For the same molecule, the EC50 in assay [3] fell in the range of 0.2 to 1 µM.

For the molecule `Cn1cnnc1-c1cc(F)ccc1-c1cccc(-c2nc3cc(CNCC(=O)N4CCC4)cc(C(F)(F)F)c3o2)c1` [HE-4, 1-(Azetidin-1-yl)-2-(((2-(4′-fluoro-2′-(4-methyl-4H-1,2,4-triazol-3-yl)-[1,1′-biphenyl]-3-yl)-7-(trifluoromethyl)benzo[d]oxazol-5-yl)methyl)amino)ethan-1-one], the IC50 in assay [1] and in assay [2] was less than 0.2 µM each time. For the same molecule, the EC50 in assay [3] was 1 to 10 µM.

Turning to `Cn1cnnc1-c1cc(F)ccc1-c1cccc(-c2nc3cc(C(NCC4CCC4)C(F)(F)F)cc(C4CC4)c3o2)c1` (racemic) [IO-4, rac-N-(Cyclobutylmethyl)-1-(7-cyclopropyl-2-(4′-fluoro-2′-(4-methyl-4H-1,2,4-triazol-3-yl)-[1,1′-biphenyl]-3-yl)benzo[d]oxazol-5-yl)-2,2,2-trifluoroethan-1-amine], the IC50 in assay [1] and in assay [2] was 1 to 10 µM throughout. In addition, in assay [3], the EC50 fell in the range of 1 to 10 µM.

Turning to `COCCNCc1cc2nc(-c3cc(-c4ccc(F)cc4-c4nncn4C)cc(C4CC4)n3)oc2c(C)c1F` [AHG-1, [(2-{6-cyclopropyl-4-[4-fluoro-2-(4-methyl-1,2,4-triazol-3-yl)phenyl]pyridin-2-yl}-6-fluoro-7-methyl-1,3-benzoxazol-5-yl)methyl](2-methoxyethyl)amine], the IC50 in assay [1] and in assay [2] was less than 0.2 µM each time. In addition, in assay [3], the half-maximal effective concentration (EC50) is less than 0.2 µM.

`COc1cc(CNC[C@@H]2CCCO2)cc2nc(-c3cccc(-c4ccc(F)cc4-c4nncn4C)c3)oc12` [FS-2, (S)-1-(2-(4′-Fluoro-2′-(4-methyl-4H-1,2,4-triazol-3-yl)-[1,1′-biphenyl]-3-yl)-7-methoxybenzo[d]oxazol-5-yl)-N-((tetrahydrofuran-2-yl)methyl)methanamine]: the half-maximal inhibitory concentration (IC50) in assay [1] and in assay [2] was less than 0.2 µM in each case. The EC50 in assay [3] was less than 0.2 µM.

With `[2H]C([2H])(NCC1(O)CCC1)c1cc(C(F)(F)F)c2oc(-c3cccc(-c4ccc(F)cc4-c4nncn4C)c3)nc2c1` [HB-1, 1-((((2-(4′-Fluoro-2′-(4-methyl-4H-1,2,4-triazol-3-yl)-[1,1′-biphenyl]-3-yl)-7-(trifluoromethyl)benzo[d]oxazol-5-yl)methyl-d2)amino)methyl)cyclobutan-1-ol], the IC50 in assay [1] and in assay [2] was less than 0.2 µM throughout. In addition, the concentration giving a half-maximal response (EC50) in assay [3] was less than 0.2 µM.
